Measured values reported in ChEMBL document CHEMBL1201862, “PubChem BioAssay data set” (2004).
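These data come from cells grown in 96-well plates and exposed to compound for 48 hours at five concentrations. Abbreviation: GI50, concentration required for 50% inhibition of growth.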 Calls of active or inactive are those of the source. Rule as the data show it: active = GI50 up to about 1.1 µM and inactive = higher.

How the values were obtained:
Assay in all cases: NCI anticancer screen, dose series, 48 h
[1] = test system: 786-0
[2] = test system: CAKI-1
[3] = test system: HOP-62
[4] = test system: HOP-92
[5] = test system: IGROV-1
[6] = test system: KM12
[7] = test system: M14
[8] = test system: Malme-3M
[9] = test system: NCI-H226
[10] = test system: NCI-H522
[11] = test system: NCI/ADR-RES
[12] = test system: SF-539
[13] = test system: SK-MEL-2
[14] = test system: SK-MEL-5
[15] = test system: SK-OV-3
[16] = test system: SNB-75
[17] = test system: U-251
[18] = test system: CCRF-CEM
[19] = test system: K562
[20] = test system: RXF 393

SMILES | GI50 [1] | GI50 [2] | GI50 [3] | GI50 [4] | GI50 [5] | GI50 [6] | GI50 [7] | GI50 [8] | GI50 [9] | GI50 [10] | GI50 [11] | GI50 [12] | GI50 [13] | GI50 [14] | GI50 [15] | GI50 [16] | GI50 [17] | GI50 [18] | GI50 [19] | GI50 [20]
Cc1oc(N)c(S(=O)(=O)c2cc3ccccc3[n+]([O-])c2N)c1C | > 100 µM (inactive) | > 100 µM (inactive) | > 100 µM (inactive) | > 100 µM (inactive) | > 100 µM (inactive) | > 100 µM (inactive) | > 100 µM (inactive) | > 100 µM (inactive) | > 100 µM (inactive) | > 100 µM (inactive) | > 100 µM (inactive) | > 100 µM (inactive) | > 100 µM (inactive) | > 100 µM (inactive) | > 100 µM (inactive) | > 100 µM (inactive) | > 100 µM (inactive) |  |  | 
CC1(C)CC23C4COC(=O)C2CCC1C3CC4=O (stereo not given) |  | 5.47 µM (inactive) | 24.4 µM (inactive) | 8.26 µM (inactive) | 21.9 µM (inactive) | 12.6 µM (inactive) |  | 7.21 µM (inactive) | 6.59 µM (inactive) | 3.32 µM (inactive) | 7.21 µM (inactive) | 19.5 µM (inactive) | 14.5 µM (inactive) | 9.86 µM (inactive) | 39.3 µM (inactive) | 19.8 µM (inactive) | 20.7 µM (inactive) | 2.37 µM (inactive) | 9.84 µM (inactive) | 1.71 µM (inactive)
CCCCCCCCCCCCCCCCOCC(O)CO (stereo not given) | 18.4 µM (inactive) | 17.6 µM (inactive) | 19.6 µM (inactive) | 21 µM (inactive) | 16.3 µM (inactive) | 17.4 µM (inactive) | 22.8 µM (inactive) | 19.2 µM (inactive) | 18.7 µM (inactive) | 16.8 µM (inactive) | 16.7 µM (inactive) | 16.3 µM (inactive) | 20.6 µM (inactive) | 27.5 µM (inactive) | 16.6 µM (inactive) |  | 19 µM (inactive) | 11.1 µM (inactive) |  | 16.2 µM (inactive)
Cc1ccc(C(=O)N/N=C(\N=N\c2cccc([N+](=O)[O-])c2)c2ccc(N(CCC#N)CCC#N)cc2C)cc1 | 34.4 µM (inactive) | 38.9 µM (inactive) | 25.4 µM (inactive) | 45.9 µM (inactive) | 19.2 µM (inactive) | 19.7 µM (inactive) | 33.4 µM (inactive) | 4.12 µM (inactive) |  | 20.4 µM (inactive) | 34.8 µM (inactive) | 4.58 µM (inactive) | 26.9 µM (inactive) | 13.6 µM (inactive) | 36.8 µM (inactive) | 21.1 µM (inactive) | 36.1 µM (inactive) | 24.8 µM (inactive) | 22.8 µM (inactive) | 8.75 µM (inactive)
Cc1ccc(S(=O)(=O)N/N=C2/C3CCC(C3)C2c2ccccc2)cc1 (stereo not given) | > 100 µM (inactive) | > 100 µM (inactive) | > 100 µM (inactive) | > 100 µM (inactive) | > 100 µM (inactive) | > 100 µM (inactive) | > 100 µM (inactive) | > 100 µM (inactive) | > 100 µM (inactive) | > 100 µM (inactive) | > 100 µM (inactive) |  | > 100 µM (inactive) | > 100 µM (inactive) | > 100 µM (inactive) | > 100 µM (inactive) | > 100 µM (inactive) | > 100 µM (inactive) | > 100 µM (inactive) | 
Cc1c(Cl)nc(Cl)nc1Cl | 1.48 µM (inactive) | 0.273 µM (active) | 4.97 µM (inactive) | 2.12 µM (inactive) | 3.01 µM (inactive) | 2.44 µM (inactive) | 0.857 µM (active) | 1.05 µM (active) | 3.21 µM (inactive) | 0.044 µM (active) | 1.36 µM (inactive) | 2.43 µM (inactive) |  | 2.16 µM (inactive) | 3.91 µM (inactive) | 5.68 µM (inactive) | 1.77 µM (inactive) | 0.238 µM (active) | 0.6 µM (active) | 1.87 µM (inactive)
CN1COCc2c1ccc1cc3ccc4c(c3nc21)COCN4S(C)(=O)=O | 73.6 µM (inactive) | > 100 µM (inactive) | > 100 µM (inactive) | > 100 µM (inactive) | > 100 µM (inactive) | > 100 µM (inactive) | > 100 µM (inactive) | > 100 µM (inactive) | > 100 µM (inactive) | > 100 µM (inactive) | > 100 µM (inactive) |  |  | > 100 µM (inactive) | > 100 µM (inactive) | 20 µM (inactive) | > 100 µM (inactive) | > 100 µM (inactive) | > 100 µM (inactive) | > 100 µM (inactive)
Cn1c(=O)c2c(nc(N/N=C3/SCC(=O)N3Cc3ccccc3)n2C)n(C)c1=O | > 100 µM (inactive) | > 100 µM (inactive) | > 100 µM (inactive) | 5.9 µM (inactive) | 34.3 µM (inactive) | 94.2 µM (inactive) | > 100 µM (inactive) | > 100 µM (inactive) | > 100 µM (inactive) | 71.4 µM (inactive) | > 100 µM (inactive) | 25.6 µM (inactive) | 58.7 µM (inactive) | 34 µM (inactive) | 43.5 µM (inactive) |  | 54.6 µM (inactive) | 47.9 µM (inactive) | < 0.01 µM (active) | > 100 µM (inactive)
S=C(NCc1ccccn1)N/N=C/c1ccccn1 | < 0.01 µM (active) | < 0.01 µM (active) | < 0.01 µM (active) | < 0.0206 µM (active) | < 0.01 µM (active) | < 0.01 µM (active) | < 0.01 µM (active) | 0.614 µM (active) | < 0.0168 µM (active) | < 0.01 µM (active) | < 0.01 µM (active) | < 0.0159 µM (active) | 0.0234 µM (active) | 0.0184 µM (active) |  | 3.05 µM (inactive) |  | < 0.01 µM (active) | < 0.01 µM (active) | < 0.0378 µM (active)
O=NN(CCF)C(=O)NC1CCSCC1 |  | > 100 µM (inactive) | 1 µM (active) | > 100 µM (inactive) | > 100 µM (inactive) | > 100 µM (inactive) |  | > 100 µM (inactive) |  | > 100 µM (inactive) | > 100 µM (inactive) | > 100 µM (inactive) | > 100 µM (inactive) | > 100 µM (inactive) | > 100 µM (inactive) | > 100 µM (inactive) | > 100 µM (inactive) | > 100 µM (inactive) | > 31.6 µM (inactive) | > 100 µM (inactive)
CN(C)CCOc1ccc2[nH]c(C(=O)N3CC(CCl)c4c3cc(N)c3ccccc43)cc2c1 (stereo not given) | < 0.01 µM (active) | < 0.01 µM (active) | < 0.01 µM (active) | < 0.01 µM (active) | < 0.01 µM (active) | < 0.01 µM (active) | < 0.01 µM (active) | < 0.01 µM (active) | < 0.01 µM (active) | < 0.01 µM (active) | < 0.01 µM (active) | < 0.01 µM (active) | < 0.01 µM (active) | < 0.01 µM (active) | < 0.01 µM (active) | < 0.01 µM (active) | < 0.01 µM (active) | < 0.01 µM (active) | < 0.01 µM (active) | 
CC(=O)c1cc(I)c(O)c2ncccc12 | 3.03 µM (inactive) | 3.08 µM (inactive) | 4.36 µM (inactive) | 2.07 µM (inactive) | 2.94 µM (inactive) | > 10 µM (inactive) | 1.97 µM (inactive) | 3.45 µM (inactive) | 2.33 µM (inactive) | 3.6 µM (inactive) | 4.35 µM (inactive) | 3.05 µM (inactive) | 6.35 µM (inactive) | 2.29 µM (inactive) | 4.27 µM (inactive) |  | 3.97 µM (inactive) | 2.07 µM (inactive) | 7.55 µM (inactive) | 3.92 µM (inactive)
O=C(NCCNCCCNC(=O)c1cc(-c2ccccc2)nc2ccccc12)c1cccc(OCc2ccccc2)c1OCc1ccccc1 | 1.71 µM (inactive) | 1.61 µM (inactive) | 1.65 µM (inactive) | 1.53 µM (inactive) | 1.85 µM (inactive) | 1.83 µM (inactive) | 1.65 µM (inactive) | 2.07 µM (inactive) | 1.69 µM (inactive) | 1.73 µM (inactive) | 1.87 µM (inactive) | 1.77 µM (inactive) |  | 1.71 µM (inactive) | 1.71 µM (inactive) | 1.87 µM (inactive) | 1.94 µM (inactive) | 1.79 µM (inactive) | 1.74 µM (inactive) | 2.13 µM (inactive)
O=C(O)Cc1cccc2c(=O)c3cccc([N+](=O)[O-])c3[nH]c12 | > 100 µM (inactive) | > 100 µM (inactive) | 31.4 µM (inactive) | > 100 µM (inactive) | > 100 µM (inactive) | 85.1 µM (inactive) | 27.8 µM (inactive) | 29.4 µM (inactive) |  | 63.2 µM (inactive) | > 100 µM (inactive) | 29.7 µM (inactive) | 72.1 µM (inactive) | 44.7 µM (inactive) | > 100 µM (inactive) | 24.2 µM (inactive) | 38.9 µM (inactive) | > 100 µM (inactive) | > 100 µM (inactive) | 
CC1(C)N=C(C2CCCN2C(=O)OCc2ccccc2)OC1=O (stereo not given) | > 100 µM (inactive) | > 100 µM (inactive) | > 100 µM (inactive) |  | > 100 µM (inactive) | > 100 µM (inactive) | > 100 µM (inactive) | > 100 µM (inactive) | > 100 µM (inactive) | > 100 µM (inactive) | > 100 µM (inactive) | > 100 µM (inactive) | > 100 µM (inactive) | > 100 µM (inactive) | > 100 µM (inactive) | > 100 µM (inactive) | > 100 µM (inactive) | > 100 µM (inactive) | > 100 µM (inactive) | 30 µM (inactive)
